Data on five compounds can be found in PubChem BioAssay AID720608 (Broad Institute, 2013).

The test relates to SR lymphoma cells viability, CellTiter-Glo ATP, 8-48 h. The experiment in a line: SR lymphoma cell viability over time, late-stage follow-up, mechanism study for HRAS target identification, CellTiter-Glo ATP luminescence, 8-48 h, dry powder (AID 720608). (In general: Cellular ATP, detected with luciferase, serves as a proxy for viable cell number.)

Inconclusive results are not listed.

Usually AC50 stands for the midpoint of the concentration-response curve, whichever way the signal moves. Consider `C#CCCCC(=O)NCCOCCOCCOc1ccc(N(C(=O)CCl)C(C(=O)NCCc2ccccc2)c2cccs2)cc1Cl` (stereo not given), for which the half-maximal activity concentration (AC50) worked out at 2430 nM (measured here: 8 h treatment), 406 nM (measured here: 24 h treatment) and 703 nM (measured here: 48 h treatment).
As to `Cc1onc(C(=O)N2CCN(C(c3ccc(Cl)cc3)c3ccc(Cl)cc3)CC2)c1[N+](=O)[O-]`, the AC50 was 364 nM (measured here: 8 h treatment), 80.4 nM (measured here: 24 h treatment) and 97.9 nM (measured here: 48 h treatment).
Consider `COC(=O)c1ccc([C@@H]2c3[nH]c4ccccc4c3C[C@@H](C(=O)OC)N2C(=O)CCl)cc1`, for which the AC50 reads like this: (measured here: 8 h treatment) 112 nM; (measured here: 24 h treatment) 17.1 nM; (measured here: 48 h treatment) 18.6 nM.
As to `CC(C)(C)OC(=O)NCCOCCOCCOc1ccc(N(C(=O)CCl)C(C(=O)NCCc2ccccc2)c2cccs2)cc1Cl` (stereo not given), the AC50 came out at 265 nM (measured here: 8 h treatment), 61.1 nM (measured here: 24 h treatment) and 53.1 nM (measured here: 48 h treatment).
For the compound `COc1ccc(N(C(=O)CCl)C(C(=O)NCCc2ccccc2)c2cccs2)cc1Cl` (stereo not given), the AC50 was 119 nM (measured here: 8 h treatment), 46.8 nM (measured here: 24 h treatment) and 42.3 nM (measured here: 48 h treatment).
